This is an account of results in patent publication US10793568B2, “Hormone receptor modulators for treating metabolic conditions and disorders” (ARDELYX, INC., priority 2016, dated 2020).

Experiment [1] concerns the target ligand binding domain of human FXR (Homo sapiens (Human), UniProt Q96RI1). The experiment in a line: FXR ligand binding assay (LanthaScreen TR-FRET, SRC2-2 peptide recruitment). The conditions noted are these: for Emax: read-out: % Efficacy. In general terms: In TR-FRET formats the signal depends on donor and acceptor labels being close together.
The target in experiment [2] is human Farnesoid X receptor ligand-binding domain/Gal4 DNA binding domain chimera (Homo sapiens (Human), UniProt Q96RI1). The experiment in a line: Cell-based assay of FXR activation (FXR-UAS-bla HEK 293T beta-lactamase reporter). Conditions: cellular FXR beta-lactamase reporter assay; for Emax: HEK-293T, extent of activation relative to GW4064, read-out: % Efficacy. A digest of the protocol: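 HEK 293T cells stably expressing a Gal4-fused human FXR LBD and a UAS-driven beta-lactamase reporter were incubated with serially diluted compounds for 16 h at 37 °C in phenol red-free DMEM with 2% charcoal-stripped FBS. CCF4 FRET read-out: excitation 409 nm, emission 447 nm. pEC50 comes from a 3-parameter logistic fit, and efficacy is given as % of GW4064.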
A general note: Reporter assays use an easily measured gene product as a stand-in for the process of interest.

The mark [3] stands for this setting: extent of activation relative to GW4064.
Where [4] appears, read: FXR-UAS-bla HEK 293T cells, 16 h, pEC50 = -log EC50.
[5] abbreviates: -log EC50, concentration required to produce 50% activation.

Where two headings read alike, the source gives them in different places.

Chain of ligand binding domain of human FXR (Q96RI1 262-486): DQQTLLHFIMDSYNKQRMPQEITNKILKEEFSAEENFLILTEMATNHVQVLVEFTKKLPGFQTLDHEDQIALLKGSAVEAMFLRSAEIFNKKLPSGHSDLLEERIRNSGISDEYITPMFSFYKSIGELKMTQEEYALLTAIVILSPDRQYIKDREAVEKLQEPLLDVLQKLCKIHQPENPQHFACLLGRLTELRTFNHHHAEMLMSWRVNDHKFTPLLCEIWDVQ
Chain of human Farnesoid X receptor ligand-binding domain/Gal4 DNA binding domain chimera (Q96RI1 262-486, change not shown): as the sequence (Q96RI1 262-486) above
Chain of human Farnesoid X receptor ligand-binding domain/Gal4 DNA binding domain chimera (P04386 1-147 partner): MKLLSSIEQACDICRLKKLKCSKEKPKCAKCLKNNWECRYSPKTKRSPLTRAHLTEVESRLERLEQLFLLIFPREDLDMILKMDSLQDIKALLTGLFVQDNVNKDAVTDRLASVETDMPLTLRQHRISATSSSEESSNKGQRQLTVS

Usually pEC50 stands for −log10 of the EC50, conventionally taken in molar units. Read a low pEC50 as a high EC50. With `CC[N+](C)(CC)CCCCCCCCCCS(=O)(=O)NC(=O)c1ccc(N2C[C@@H]3C[C@H]2C[C@H]3OCc2c(-c3c(Cl)cccc3Cl)noc2C2CC2)c(F)c1` [Compound I-226], the Emax in experiment [1] (setting [3]) came to 148%; in experiment [2] it was 152%. For the same compound, in experiment [2] (setting [4]), the pEC50 amounted to 6.6.

As for `O=C(O)c1cc(F)c2nc(N3C[C@@H]4C[C@H]3C[C@H]4OCc3c(-c4ccccc4O)noc3C3CC3)sc2c1` [Compound I-291, 2-((1S,4S,5R)-5-((5-cyclopropyl-3-(2-hydroxyphenyl)isoxazol-4-yl)methoxy)-2-azabicyclo[2.2.1]heptan-2-yl)-4-fluorobenzo[d]thiazole-6-carboxylic acid], the negative logarithm of the EC50 (pEC50) in experiment [1] (setting [5]) was 6.1. Besides, the Emax in experiment [1] (setting [3]) came out at 120%. For the same compound, in experiment [2] (setting [4]), the EC50 was less than 31.6 nM.

`Cc1cccc(Cl)c1-c1noc(C2CC2)c1CO[C@@H]1C[C@@H]2C[C@H]1CN2c1nc2c(O[C@H]3CCOC3)cc(C(=O)O)cc2s1` [Compound I-274, 2-((1S,4S,5R)-5-((3-(2-chloro-6-methylphenyl)-5-cyclopropylisoxazol-4-yl)methoxy)-2-azabicyclo[2.2.1]heptan-2-yl)-4-(((S)-tetrahydrofuran-3-yl)oxy)benzo[d]thiazole-6-carboxylic acid] gave a negative-log EC50 (pEC50) in experiment [1] (setting [5]) of 8.8. Besides, the Emax was 150% in experiment [1] (setting [3]) and 100% in experiment [2]. For the same compound, the EC50 in experiment [2] (setting [4]) was 0.631 nM.

For the compound `O=C(O)c1cc(F)c2nc(N3C[C@@H]4C[C@H]3C[C@H]4OCc3c(C4CCCCC4)noc3C3CC3)sc2c1` [Compound I-21, 2-[(1S,4S,5R)-5-[(3-cyclohexyl-5-cyclopropyl-1,2-oxazol-4-yl)methoxy]-2-azabicyclo[2.2.1]heptan-2-yl]-4-fluoro-1,3-benzothiazole-6-carboxylic Acid], the results for the EC50 in experiment [1] (setting [5]) and in experiment [2] (setting [4]) were 100 nM and 79.4 nM, respectively. Besides, the values for the Emax in experiment [1] (setting [3]) and in experiment [2] were 123% and 110%, respectively.

The compound `O=C(NS(=O)(=O)C1CCOC1)c1ccc(N2C(=O)[C@@H]3C[C@H]2C[C@H]3OCc2c(-c3c(Cl)cccc3Cl)noc2C2CC2)cc1` (stereo partly drawn) [Compound I-340, 4-((1S,4R,5R)-5-((5-cyclopropyl-3-(2,6-dichlorophenyl)isoxazol-4-yl)methoxy)-3-oxo-2-azabicyclo[2.2.1]heptan-2-yl)-N-((tetrahydrofuran-3-yl)sulfonyl)benzamide] gave a pEC50 in experiment [1] (setting [5]) of 8.8. Moreover, the Emax in experiment [1] (setting [3]) is 182%; in experiment [2] it was 110%. The compound further had an EC50 in experiment [2] (setting [4]) of 7.94 nM.

As to `COCC(=O)NCCCCCCCCCCS(=O)(=O)NC(=O)c1ccc(N2C[C@@H]3C[C@H]2C[C@H]3OCc2c(-c3c(Cl)cccc3Cl)noc2C2CC2)c(F)c1` [Compound I-225, N-{10-[({4-[(1S,4S,5R)-5-{[5-cyclopropyl-3-(2,6-dichlorophenyl)-1,2-oxazol-4-yl]methoxy}-2-azabicyclo[2.2.1]heptan-2-yl]-3-fluorophenyl}formamido)sulfonyl]decyl}-2-methoxyacetamide], the pEC50 in experiment [1] (setting [5]) was determined as 9.5. Further, the Emax was 166% in experiment [1] (setting [3]) and 103% in experiment [2]. The EC50 in experiment [2] (setting [4]) is 2 nM.

In turn, `Cc1cc(C(=O)NCCP(=O)(O)O)ccc1N1C[C@@H]2C[C@H]1C[C@H]2OCc1c(-c2c(Cl)cccc2Cl)noc1C1CC1` [Compound I-173, [2-({4-[(1S,4S,5R)-5-{[5-cyclopropyl-3-(2,6-dichlorophenyl)-1,2-oxazol-4-yl]methoxy}-2-azabicyclo[2.2.1]heptan-2-yl]-3-methylphenyl}formamido)ethyl]phosphonic Acid] yielded a negative logarithm of the EC50 (pEC50) in experiment [1] (setting [5]) of 9.2. For the same compound, the figures for the Emax in experiment [1] and in experiment [2] were 144% and 114%, respectively. In experiment [2] (setting [4]), the EC50 was 100 nM.
